Data reported in article PMC8397403, “Physiologically Based Pharmacokinetic Modeling of Transporter-Mediated Hepatic Disposition of Imaging Biomarker Gadoxetate in Rats” (Molecular Pharmaceutics, 2021).
Several values for one entry are separate records, joined by “and”; a condition that tells them apart may be missing. Identical values can stand only once. Like-named read-outs stand apart in the source and are kept apart here. Marks after values point to notes of the source that are not given here.

What was measured:
[1] = Top-down PBPK model fitting to DCE-MRI ΔR1 data, gadoxetate administered alone; assay type: in vivo, rat
Experimental: (§1) DCE–MRI data generated using the 3D Fast Low Angle Shot RF-spoiled gradient echo sequence (FLASH) protocol in male Wistar-Han rats were used for assessing the PBPK IVIVE performances and for obtaining some of the PBPK parameters within the bottom-up and top-down approaches, respectively. The DCE–MRI data were acquired in a multicenter study at two magnetic field strengths, 4.7 and 7 T. Gadoxetate was administered at a dose of 25 μmol/kg, either alone or 1 h after IV administration of 10 mg/kg rifampicin. When gadoxetate was administered alone (control arm), 43 profiles of blood, spleen, and liver measured at a field strength of 4.7 T and 52 profiles of blood, spleen, and liver measured at 7 T were available. In the case of gadoxetate administered with rifampicin, 7 blood, spleen, and liver profiles at a field strength equal to 4.7 T and 6 at 7 T were available. All gadoxetate DCE–MRI data and study protocols are detailed in a companion paper (Hines et al. in submission).
The measured quantity in DCE–MRI is ΔR1 (s^–1), the change of the water proton longitudinal relaxation rate, a magnetic property of the tissues, due to the presence of the contrast agent. In sufficiently homogeneous tissues, the tissue concentration of the contrast agent as a function of time, c(t), can be derived from ΔR1(t). The relationship between c(t) and ΔR1(t) depends on the physical interactions between the contrast agent molecules and the tissue.[39] For a given tissue τ, the relation between ΔR1,τ(t) and cτ(t) is generally considered to be linear, as in eq 4.[39],[40] [drawing 4] 4
A reduced PBPK model was developed to describe the PK of gadoxetate in rats; a permeability-limited liver model was implemented capturing relevant processes, as done previously.[6],[41] The compartments represent the blood, spleen, splanchnic organs, liver interstitial space, hepatocytes, and the rest of the body (ROB) vascular and extravascular spaces. The ROB compartment includes muscles, skin, bones, and fat among others. Details of model equations and physiological parameters values are reported in the Supporting Information, Sections 2, 3, and 5.
Standard kinetic models used for MRI contrast agents generally describe the organs by using three compartments: plasma, interstitial, and intracellular spaces.[12],[42],[43] Gadoxetate distributes only in the extracellular space of all the organs; liver is the exception, where gadoxetate undergoes active uptake into the hepatocytes.[44] Therefore, in the gadoxetate PBPK model, the volume of all the compartments, except the blood and the liver, corresponded to the organ extracellular space, that in turn was considered to be composed of the blood within the organ and the interstitial space. For highly vascularized and perfused organs with fenestrated capillaries (e.g., liver), the exchange between the plasma and the interstitial space is generally considered to be fast.[12],[19] Therefore, for liver, spleen, and splanchnic compartments, the extracellular volumes were considered to be the sum of the blood within the organ and the interstitial space volumes. […] A permeability limitation between the vascular and interstitial space was, therefore, assumed for the ROB compartment, as shown in eq 5. [drawing 5] 5 cb, crob,v and crob,ev [μmol/L] are the gadoxetate concentration in blood and ROB vascular and extravascular compartments; Vrob,v and Vrob,ev [L] are the ROB vascular and extravascular compartment volumes, respectively; and PS [L/h] is the permeability surface product. […]

[2] = test system: active uptake transport of gadoxetate into the liver; experiment: Simultaneous PBPK fitting of gadoxetate DCE-MRI data in control and rifampicin phases; assay type: in vivo, rat; settings: value (CV)
Experimental: as §1
The DCE–MRI data used in this study were reported as ΔR1. Therefore, the relationship between the compartmental concentrations represented by the PBPK model state variables and the ΔR1 measurements for the blood, liver, and spleen needed to be described. The linear relationship in eq 4 is not valid for ΔR1 of the liver, ΔR1,liv, because intracellular and extracellular tissue compartments have different relaxivities. To derive ΔR1,liv, a volume fraction-weighted mean of the contributions of the gadoxetate concentration in all the compartments used to model the liver was performed.[40] In the spleen, the entire distribution space was supposed to have the same relaxivity as blood and, therefore, eq 4 can be applied directly to derive spleen concentrations from ΔR1,spl. Concerning the blood, the blood value for r1 in Table 1 allows ΔR1,b to be directly related to the blood concentration. The relations between ΔR1,liv, ΔR1,spl, and ΔR1,b and the concentrations of the PBPK compartments are shown in eq 7. [drawing 7] 7 cspl,extr is the extracellular concentration in the spleen and Vspl,extr is the extracellular volume of the spleen and Vliv and Vspl are the whole volumes of liver and spleen. r1,liv,extr and r1,spl,extr were assumed to be equal to r1,b, as described in Hines et al.
In fact, each of the data are acquired during a time interval Δt, which was 57 s in the current dataset. To account for this characteristic when performing the parameter estimation, the residuals were calculated as the difference of the observed ΔR1 corresponding to a given time interval minus the mean of the simulated PBPK ΔR1 within the same interval, as explained in the Supporting Information, Section 4.
The extent of interaction with rifampicin was estimated by performing a simultaneous fitting of gadoxetate ΔR1 in the control and inhibitory phase. In this analysis, PS was considered the same for both phases, whereas the other parameters were separately estimated in the absence (CLactive and CLbiliary) and in the presence of rifampicin (CLactive,inh and CLbiliary,inh). CLbiliary,inh was considered to account for possible inhibition of Mrp2 in rat by rifampicin, as previously reported.[45] To understand the impact of the inclusion of the liver-imaging data on the parameter optimization, the simultaneous estimation was also performed considering only the blood data.
All the PBPK analyses were performed in MATLAB R2020a,[50] the ordinary differential equations were solved with the function “ode15s”, while the parameter optimization was performed with the function “lsqnonlin”. The uncertainty of the parameters estimate was evaluated with the case-bootstrap,[51] using 1000 samples.

[3] = renal clearance calculated as CLtotal × fe, rat weight 0.25 kg; fixed literature value; cited from earlier work
[4] = parameters: method as in PMID 32851735; settings: cited from earlier work; for Ex vivo relaxivity r1, blood: spleen assumed equal to blood
[5] = fit to blood, spleen and liver ΔR1, gadoxetate alone, mean (CV %) of 1000 bootstrap samples
[6] = gadoxetate alone, blood data only, value (CV)
[7] = gadoxetate alone, blood, spleen, liver ΔR1, CLr also estimated, value (CV)
[8] = gadoxetate 1 h after rifampicin i.v. 10 mg/kg, simultaneous fit
[9] = simultaneous fit, 5-compartment liver model
[10] = with rifampicin, 5-compartment liver model

CLactive, top-down estimate ([1]; fit to blood, spleen and liver ΔR1, gadoxetate alone 25 μmol/kg, mean (CV %) of 1000 bootstrap samples): 2.17 (11.5%) ^b L/h | CLbiliary, top-down estimate [1, 5]: 0.07 (3.2%) ^b L/h | PS, top-down estimate [1, 5]: 0.62 (6.3%) ^b L/h | CLactive, estimated only with ΔR1 blood data [1, 6]: 1.88 (23.2 %) L/h and 1.88 L/h | PS, estimated only with ΔR1 blood data [1, 6]: 1.92 (20.8 %) L/h and 1.92 L/h | CLactive, simultaneous estimation with CLr [1, 7]: practically unidentifiable | CLbiliary, simultaneous estimation with CLr [1, 7]: 0.07 (2.6 %) L/h | PS, simultaneous estimation with CLr [1, 7]: 0.58 (8.3 %) L/h | CLactive, simultaneous estimation with CLr ([1]; gadoxetate alone, blood, spleen, liver ΔR1, CLr also estimated, value (CV), listed as Gadoxetate): 3.11 (>1000 %) L/h | CLr, estimated ([1]; gadoxetate alone, blood, spleen, liver ΔR1, value (CV)): 0.40 (24.6 %) L/h | CLactive, estimated value (with rifampicin) (CLactive,inh) [2, 8]: 0.095 (16.1%) L/h | CLbiliary, estimated value (with rifampicin) (CLbiliary,inh) [2, 8]: 0.08 (16.7%) L/h | CLactive, estimated value (control) ([2]; simultaneous fit of control and rifampicin phases, blood, spleen, liver ΔR1): 2.38 (13.6%) L/h | CLbiliary, estimated value (control) ([2]; simultaneous fit of control and rifampicin phases): 0.07 (3.1%) L/h | PS, blood ΔR1 only ([2]; simultaneous fit using only blood ΔR1, both groups): 2.07 (20 %) L/h | CLactive control group, blood ΔR1 only ([2]; simultaneous fit using only blood ΔR1): 1.82 (30 %) L/h and 1.82 L/h | CLactive control group, 5-compartment liver model [2, 9]: 1.45 (7.4 %) L/h | CLbiliary control group, 5-compartment liver model [2, 9]: 0.07 (3.2 %) L/h | PS, 5-compartment liver model ([2]; simultaneous fit, both groups): 0.81 (7.2 %) L/h | PS, estimated value ([2]; simultaneous fit, same for both phases): 0.71 (5.7%) L/h | CLactive rifampicin group (CLactive,inh), blood ΔR1 only ([2]; with rifampicin 10 mg/kg, simultaneous fit using only blood ΔR1): 0.29 (45 %) L/h and 0.29 L/h | CLactive rifampicin group, 5-compartment liver model [2, 10]: 0.065 (28.2 %) L/h | CLbiliary rifampicin group, 5-compartment liver model [2, 10]: 0.07 (26.6 %) L/h
Structure (SMILES): CCOc1ccc(C[C@@H](CN(CCN(CC(=O)[O-])CC(=O)[O-])CC(=O)[O-])N(CC(=O)[O-])CC(=O)[O-])cc1.[Gd+3].[H+].[H+] [gadoxetate]
CLr [3]: 0.17 L/h | Ex vivo relaxivity r1, hepatocytes ([4]; 4.7 T): 7.6 s^–1/mM | Ex vivo relaxivity r1, blood ([4]; 4.7 T): 6.4 s^–1/mM | Ex vivo relaxivity r1, hepatocytes ([4]; 7 T): 6 s^–1/mM | Ex vivo relaxivity r1, blood ([4]; 7 T): 6.2 s^–1/mM
